Target: Carbonic anhydrase 9 (Homo sapiens, UniProt Q16790)
Test: Inhibition of human CA9 catalytic domain preincubated for 15 mins by stopped flow CO2 hydration assay

| Ki | Compound |
| --- | --- |
| 16 nM | COc1ccc2c(c1)CCN(S(N)(=O)=O)C2c1cccc([N+](=O)[O-])c1 (racemic) |
| 18 nM | COc1ccc2c(c1)CCN(S(N)(=O)=O)C2c1cccc(N)c1 (racemic) |
| 7.5 nM | COc1ccc2c(c1)CCN(S(N)(=O)=O)C2c1ccc(C)cc1 (racemic) |
| 7 nM | COc1ccc2c(c1)CCN(S(N)(=O)=O)C2c1ccc(C#N)cc1 (racemic) |
| 60.7 nM | COc1ccc2c(c1)CCN(S(N)(=O)=O)C2c1ccc(Br)cc1 (racemic) |
| 5 nM | COc1ccc2c(c1)CCN(S(N)(=O)=O)C2c1ccc([N+](=O)[O-])cc1 (racemic) |
| 31 nM | COc1ccc2c(c1)CCN(S(N)(=O)=O)C2c1ccc(F)cc1 (racemic) |
| 78 nM | COc1ccc2c(c1)CCN(S(N)(=O)=O)C2c1ccccc1 (racemic) |
| 12 nM | COc1ccc2c(c1)CCN(S(N)(=O)=O)C2c1ccc(N)cc1 (racemic) |

Source: ChEMBL document CHEMBL1921689, “Synthesis and biological profile of new 1,2,3,4-tetrahydroisoquinolines as selective carbonic anhydrase inhibitors” (Bioorg Med Chem, 2011)
